In US7399888B2, “Anticonvulsant compounds” (priority 2006, dated 2008):

How the values were obtained:
NMRI mice [1] = test: subcutaneous pentylenetetrazole (scPTZ) induced seizure model; assay type: in vivo; conditions: tested in mixture form
Description: (§1) Male NMRI albino mice weighing 19-22 g were housed in an environmentally regulated room on a 12 h light: 12 h dark cycle with 25±1° C. and had free access to food and water. The use of animals in experimental protocol was approved by the research committee of the ICCS, University of Karachi, in accordance with the international guidelines for the care and use of laboratory animals. The anticonvulsant activity of compounds in mixture form was determined after intraperitoneal administration to NMRI mice weighing 19-22 g. Maximal electroshock (MES) and subcutaneous pentylenetetrazole (scPTZ) induced seizure models were used to test the anticonvulsant properties of compounds. […] Protection against HLTE in MEST predicts the ability of a testing material to prevent the spread of seizures discharge from the epileptic focus in brain in additions effectiveness in MEST correlates with efficacy in suppressing the generalized tonic-clonic and partial seizures. […] Anticonvulsant activity in the scPTZ test identifies compounds that can raise seizure threshold in the brain.

NMRI mice [2] = test: Maximal electroshock (MES) induced seizure model; assay type: in vivo; conditions: tested in mixture form
Description: as §1

CC(=O)/C=C1/C=C(C)CC(C)(C)C1 [Isoxylitone A, 2-Propanone 1-(3,5,5-trimethyl-2-cyclohexen-1-ylidene) (1E)] was tested, and the “prevention of convulsions in chemically-induced seizure model” value (NMRI mice [1]) was “able to prevent convulsions” and the “prevention of convulsions in electrically-induced seizure model” value (NMRI mice [2]) was “able to prevent convulsions”.

In the case of CC(=O)/C=C1\C=C(C)CC(C)(C)C1 [Isoxylitone B, 2-Propanone, 1-(3,5,5-trimethyl-2-cyclohexen-1-ylidene)-, (1Z)], the “prevention of convulsions in chemically-induced seizure model” value (NMRI mice [1]) was “able to prevent convulsions” and the “prevention of convulsions in electrically-induced seizure model” value (NMRI mice [2]) was “able to prevent convulsions”.
